Reference: US20240100074A1, “Clinical Dosing Schedule of Inositol Phosphate Oligo(Ethylene Glycol) Compounds” (VIFOR (INTERNATIONAL) AG, priority 2021, published 2024)
“Also recorded” adds a separate entry of the source.

Assays:
[1] = tested on: Abcc6−/− mice (mouse model of PXE); experiment: Prevention study: quantitative chemical calcium assay of muzzle skin biopsies; type: in vivo; conditions: 6 weeks
Procedure: (§1) Abcc6^−/− knock-out mice (Abcc6^−/−) on C57BL/6J background were generated as described previously (J. F. Klement et al., Mol Cell Biol 2005, 25, 8299). C57BL/6J mice from The Jackson Laboratory (Bar Harbor, ME) were used as wild-type controls (WT). In prevention study, 6-week-old Abcc6^−/− mice were administered with (I a) by periodic subcutaneous injections or continuous administration via subcutaneous ALZET osmotic pump model 2006 (DURECT Corp, Cupertino, CA) for duration of 6 weeks. In reversal study, 12-week-old Abcc6^−/− mice were administered (I a) at 4 mg/kg/day via osmotic pumps for 12 weeks. All mice were maintained on a standard diet and sacrificed at 12 weeks of age, 6 weeks after initiation of treatment (prevention study), or at 24 weeks of age, 12 weeks after initiation of treatment (reversal study). All protocols were approved by the Institutional Animal Care and Use Committee of Thomas Jefferson University.
(§2) Muzzle skin biopsies (left side) from euthanized mice were collected and fixed in 10% phosphate-buffered formalin and embedded in paraffin. […] To quantify the mineral deposition, muzzle skin biopsies (right side) were harvested and decalcified with 1.0 M HCl for 48 hours at room temperature. Solubilized calcium was then determined by a colorimetric assay (J. Huang et al., J Invest Dermatol 2019, 139, 1254; Q. Li, J. Huang et al., J Invest Dermatol 2019, 139, 360). […] The concentrations of (I a) in heparin plasma were analyzed on an ultra-fast liquid chromatography, as described previously (A. E. Schantl et al., Nat Commun 2020, 11, 721). The data was analyzed using Kruskal-Wallis nonparametric test.
The Abcc6^−/− mice were administered (I a) by subcutaneous implantation of osmotic pumps at doses of 0.16, 0.8, 4, 20, and 100 mg/kg/day. […] The extent of ectopic calcification after 6 weeks of treatment was analyzed by two independent assays measuring calcification in the dermal sheath of vibrissae in muzzle skin, an early and reliable biomarker in this mouse model of PXE. One piece of muzzle skin was processed for semi-quantitative histological evaluation. […]

[2] = Profile of (I a) compared to pyrophosphate and bisphosphonates
[3] = Plasma concentrations of (I a) in treated Abcc6−/− mice; type: in vivo, mouse
Procedure: (§3) Muzzle skin biopsies (left side) from euthanized mice were collected and fixed in 10% phosphate-buffered formalin and embedded in paraffin. Paraffin sections (6 μm) were stained with Hematoxylin and Eosin or von Kossa using standard procedures. To quantify the mineral deposition, muzzle skin biopsies (right side) were harvested and decalcified with 1.0 M HCl for 48 hours at room temperature. Solubilized calcium was then determined by a colorimetric assay (J. Huang et al., J Invest Dermatol 2019, 139, 1254; Q. Li, J. Huang et al., J Invest Dermatol 2019, 139, 360). The values were normalized to tissue weight. Whole blood was collected by retro-orbital bleeding or cardiac puncture. For subcutaneously injected mice, whole blood was collected 30 minutes after injection of (I a). Whole blood was collected at 2 days, 3 weeks, and 6 weeks after treatment initiation in mice receiving (I a). The concentrations of (I a) in heparin plasma were analyzed on an ultra-fast liquid chromatography, as described previously (A. E. Schantl et al., Nat Commun 2020, 11, 721). The data was analyzed using Kruskal-Wallis nonparametric test.
(I a) was undetectable in plasma of untreated Abcc6^−/− mice.
The Tmax of (I a) in plasma after subcutaneous administration in Sprague Dawley rats was reported to be about 30 minutes after injection, the inventors therefore measured (I a) concentrations in plasma 30 minutes after injection in the Abcc6^−/− mice.

[4] = tested on: Abcc6−/− mice (mouse model of PXE); experiment: Treatment (reversal) study: histopathology and calcium assay of muzzle skin in old mice; type: in vivo; conditions: 12-week-old mice, osmotic pump 4 mg/kg/day for 12 weeks, analysed at 24 weeks of age
Procedure: as §1, with “All mice were maintained on a standard diet and sacrificed at 12 weeks of age, 6 weeks after initiation of treatment (prevention study), or at 24 weeks of age, 12 weeks after initiation of treatment (reversal study). All protocols were approved by the Institutional Animal Care and Use Committee of Thomas Jefferson University.” left out
as §2, with “test. […]” for “test.”

[5] = tested on: Abcc6−/− mice (mouse model of PXE); experiment: Prevention study: histologic (von Kossa) evaluation of vibrissae calcification in muzzle skin; type: in vivo; conditions: for calcification in the dermal sheath of vibrissae in muzzle skin (von Kossa) / inhibition of ectopic calcification: osmotic pump
Procedure: as §1, §3
The Abcc6^−/− mice were administered (I a) by subcutaneous implantation of osmotic pumps at doses of 0.16, 0.8, 4, 20, and 100 mg/kg/day. The untreated wild-type and Abcc6^−/− mice served as negative and positive controls of ectopic calcification. Treatment was initiated at 6 weeks of age, a time point at the earliest stages of ectopic calcification in the Abcc6^−/− mice. The extent of ectopic calcification after 6 weeks of treatment was analyzed by two independent assays measuring calcification in the dermal sheath of vibrissae in muzzle skin, an early and reliable biomarker in this mouse model of PXE. One piece of muzzle skin was processed for semi-quantitative histological evaluation. […] The therapeutic effects of (I a) were substantiated by the calcium content in another muzzle skin biopsy measured using a quantitative chemical assay (FIG. 2A).
The inventors next examined whether periodic, bolus subcutaneous injections of (I a) at the same dose of 4 mg/kg/day, would have similar therapeutic benefits. Six-week-old Abcc6^−/− mice were administered (I a) by subcutaneous injections three times per week corresponding to 4 mg/kg/day. […] Thus, subcutaneous injection of (I a) is effective, albeit less than with continuous delivery at the same dose of 4 mg/kg/day on inhibition of ectopic calcification.
Three additional dose levels of (I a) at weekly subcutaneous injections for a duration of 6 weeks were tested to evaluate the inhibitory effects of (I a) (FIG. 1A). […] The semi-quantitative histologic evaluations of (I a) treatment were consistent with the calcium contents in the muzzle skin measured by a chemical assay (FIG. 2A).

[6] = subcutaneous administration, Sprague Dawley rats; cited from earlier work
[7] = tested on: cardiovascular calcifications; conditions: patients on hemodialysis, 1-year treatment; cited from earlier work

Structure (SMILES): COCCOCCOC1C(OP(=O)(O)O)C(OCCOCCOC)C(OP(=O)(O)O)C(OP(=O)(O)O)C1OP(=O)(O)O (centres unmarked) [(I a), bis-oligoethylene myo-inositol tetrakisphosphate]
- minimum active dose / minimum effective dose ([1]; continuous osmotic pump administration): 0.8 mg/kg/day
- inhibition of ectopic calcification by calcium assay ([1]; osmotic pump, 0.8 mg/kg/day): 59%
- inhibition of ectopic calcification by calcium assay ([1]; subcutaneous injections three times per week corresponding to 4 mg/kg/day): 63%
- anti-osteoclastic activity [2]: no anti-osteoclastic activity
- local tolerability [2]: good
- subcutaneous bioavailability [2]: high
- plasma levels over time ([3]; 2 days, 3 weeks and 6 weeks after implantation of the osmotic pump): remained largely constant; also recorded: largely consistent during treatment
- plasma levels 30 minutes after subcutaneous injection ([3]; bolus subcutaneous injection versus pump administered groups): much higher than that in the pump administered groups
- plasma concentrations versus dose, all groups ([3]; osmotic pump (prior to sacrifice) or 30 minutes after subcutaneous injection): scaled relatively well with the dose administered
- plasma concentrations versus dose ([3]; osmotic pump, 0.16 to 100 mg/kg/day): dose-dependent
- degree of ectopic calcification in muzzle skin after treatment [4]: prevented further calcification; also recorded: calcification similar to 12-week-old Abcc6^−/− control mice; also recorded: stabilized existing calcification
- degree of ectopic calcification in muzzle skin after treatment ([4]; listed as INS-3001): stabilize existing calcification
- calcification in the dermal sheath of vibrissae in muzzle skin (von Kossa) ([5]; 0.16 mg/kg/day, 6 weeks): no effects
- calcification in the dermal sheath of vibrissae in muzzle skin (von Kossa) ([5]; 0.8 mg/kg/day, 6 weeks): evident but significantly reduced calcification
- calcification in the dermal sheath of vibrissae in muzzle skin (von Kossa) ([5]; 4 mg/kg/day (and above), 6 weeks, from 6 weeks of age, 4 mg/kg/day): very little, if any, calcification; also recorded: little, if any, calcification; also recorded: completely prevented ectopic calcification; also recorded: complete response
- inhibition of ectopic calcification ([5]; 4 mg/kg/day, 6 weeks): ~100%
- inhibition of ectopic calcification ([5]; 100 mg/kg/day, 6 weeks): ~100%
- calcification, subcutaneous injections overall ([5]; subcutaneous injections at different doses and frequencies (thrice weekly and once weekly)): decreased calcification; also recorded: prevented calcification
- calcification in the muzzle skin (histology) ([5]; subcutaneous injections three times per week corresponding to 4 mg/kg/day, 6 weeks): significantly reduced calcification
- ectopic calcification in the muzzle skin (histology) ([5]; weekly subcutaneous injection, 0.8 mg/kg/day, 6 weeks): significantly reduced ectopic calcification
- calcification in the muzzle skin (histology) ([5]; weekly subcutaneous injection, 4 mg/kg/day, 6 weeks): significantly reduced calcification
- Tmax in plasma [6]: about 30 minutes

Structure (SMILES): O=P(O)(O)O[C@H]1[C@H](OP(=O)(O)O)[C@@H](OP(=O)(O)O)[C@H](OP(=O)(O)O)[C@@H](OP(=O)(O)O)[C@H]1OP(=O)(O)O [IP6]
- progression of cardiovascular calcifications [7]: stop the progression, albeit without regression
